1 compound from paper PMC9050848, “Carbamoyl-N-aryl-imine-urea: a new framework to obtain a putative leishmanicidal drug-candidate” (RSC Advances, 2020) can be followed below.

Data set [1] in a line: Plasma stability (UPLC-MS/MS recovery). The data set is classed as in vitro ADME. Conditions: 4 hours, 37 °C, rat plasma diluted 1:1 with PBS pH 7.4. As to the method:
To investigate the potential plasma instability of the carbamoyl-N-arylimine-urea subunit, designed as a new peptide mimetic framework, compound 10e (LASSBio-1736) was selected to investigate its plasma stability,[21,22] previously to the evaluation of its in vivo leishmanicidal effect. Quantitation of 10e (LASSBio-1736), benzocaine standard (positive control; it means a substrate drug for plasma hydrolysis) and ketoconazole (internal standard) was determined by UPLC-MS/MS, after incubation of the compounds at 0, 30, 60, 120 and 240 min with rat plasma, and measuring the peak areas in three different experiments.
For analysis of plasma stability, 5 μL (250 ng mL^−1) of a concentrated solution of 10e (LASSBio-1736) or the positive control benzocaine (stock concentration = 10 000 ng mL^−1 solubilized in DMSO) was added in 195 μL of rat plasma solution (1 : 1) diluted with PBS (pH 7.4). […] The supernatant (400 μL) were placed in 2 mL vials, and analyzed by UPLC-MS/MS. […]
Detection in single reaction monitoring (SRM) mode was used for determination of the LASSBio-1736 (10e) m/z 419.1 → 205.0, benzocaine m/z 166.1 → 137.9 and ketoconazole (IS) 532.1 → 490.3, with a tolerance of mass deviation of 6 ppm, operating in positive ionization mode. The data were acquired using TraceFinder 3.2. software (Thermo Fisher Scientific, Waltham, USA), and analyzed using GraphPad Prism 5 program.

For data set [2], the system named is L. amazonensis intracellular amastigotes. Briefly: Leishmanicidal activity against intracellular amastigote forms of L. amazonensis in J774.A1 macrophages. The data set is classed as cell-based. As to the method: Considering that L. amazonensis is one of the causative species of cutaneous leishmaniasis in Brazil,[20] we have investigated the leishmanicidal effect of compounds 9a–e and 10a–e against L. amazonensis amastigotes forms. Initially, all compounds were evaluated at 30 μM. […] Then, they were selected to determine their IC50 value for intracellular amastigote forms of L. amazonensis.
(§1) Promastigotes of L. amazonensis (MHOM/BR/77/LTB0016) were obtained from Dr Eduardo Caio Torres dos Santos at Oswaldo Cruz Institute – Fiocruz. Promastigotes of L. braziliensis (MHOM/BR/01/BA788) were obtained from Dr Valéria de Matos Borges at Gonçalo Moniz Research Center – Fiocruz. The parasites were maintained in vitro in Schneider's medium, supplemented with 10% FBS and 2% human urine at 27 °C in BOD incubator.
(§2) Initially, compounds 9a–e and 10a–e were evaluated at screening concentration of 30 μM against L. amazonensis, using DMSO 0.03% as vehicle control, since this was the DMSO concentration (vehicle) remaining in each well with the tested compounds. […] Vehicle control used was DMSO 0.1%, since this was the concentration of DMSO (vehicle) existing in each well with the tested substances in the highest concentration used.
(§3) To assess the activity of the test derivatives against the amastigote stage of L. amazonensis and L. braziliensis the model of infection in coverglass was realized.[31] The murine macrophages (J774.A1 cell line) were prepared in 24-well cell culture plate (flat bottom, clear, Corning) at 2 × 10^5 adherent cells per well, infected with 2 × 10^6 promastigotes in glass coverslips placed inside 1 mL medium culture. The cultures were cultured or not with the test derivatives or reference drugs, and kept for 24 h at 37 °C, 5% CO2. After 24 h of incubation, the coverslips were washed, stained with Giemsa–May–Grünwald, and intracellular amastigotes were counted in 100 macrophages, using an optical microscope, on the objective of 100×. Thus, during the counting of 100 macrophages, the amount of amastigotes present within these defence cells was also determined. Data obtained from in vitro experiments were expressed as the mean ± S.E.M. of duplicate cultures of representative assays. Statistical differences between the treated and the control groups were evaluated by ANOVA and Dunnett hoc tests. Differences with a p value < 0.05 or lower were considered significant.

Data set [3] has as its system L. braziliensis intracellular amastigotes. Briefly: Leishmanicidal activity against intracellular amastigote forms of L. braziliensis in J774.A1 macrophages. The data set is classed as cell-based. Conditions: Leishmania braziliensis.
Text: Further, the leishmanicidal activity against intracellular amastigotes forms of L. braziliensis were also investigated (Table 2).
as §1, §2, §3

The mark [4] stands for this setting: L. amazonensis amastigotes, ratio of IC50 values.

Take `O=C(N/N=C/c1ccc(C(F)(F)F)cc1)NNC(=O)c1ccc(Cl)cc1Cl` [LASSBio-1736 (10e), 2,4-dichloro-phenylcarbamoyl-N-4-trifluoromethylphenylimine-urea]: the “Compound recovery after incubation with rat plasma” value in data set [1] is recorded as “completely recovered”. For the same compound, in data set [2] (setting [4]), the “Times less potent than miltefosine” value is roughly 4.0 times. Also, the “Times less potent than pentamidine” value in data set [2] (setting [4]) is listed as “about 2.5 times”. In addition, in data set [2] (L. amazonensis, screening concentration 30 μM), the “Effect on the number of intracellular amastigotes” value is recorded as “decreased the number of intracellular amastigotes”. Also, the IC50 in data set [2] (Leishmania amazonensis, J774.A1, 24 h, read-out: IC50 (concentration required to give 50% death of parasites)) turned out to be 84 ± 0.3 µM; in data set [3] (J774.A1, 24 h, read-out: IC50 (concentration required to give 50% death of parasites)), 5.3 ± 2.6 µM. Moreover, the Emax in data set [2] (Leishmania amazonensis, J774.A1, L. amazonensis intracellular amastigotes, maximum toxicity vs 0.1% DMSO group, read-out: Maximum effect (% ± S.E.M.)) worked out at 57.6 ± 0.2%; in data set [3] (J774.A1, L. braziliensis intracellular amastigotes, maximum toxicity vs 0.1% DMSO group, read-out: Maximum effect (% ± S.E.M.)), 57.2 ± 5.2%.
